Data published in patent US4321267A, “1-Substituted-4 (1H)-pyridinone hydrazones active against Giardia lamblia and Trichomonas vaginalis” (priority 1980, dated 1982).
Converted amounts (≈) assume the structure as drawn.

What was measured:
[1] = system: Trichomonas vaginalis; experiment: In vitro anti-Trichomonas vaginalis activity (method of Example 1); assay type: cell-based, T. vaginalis 30001; details: for IC50: Trichomonas vaginalis, 37° C., 24 hours, read-out: Anti-T. vaginalis ED50; for activity against T. vaginalis (in words): method of Example 1
Method: (§1) About 1.0-2.0 ml of a nutrient medium, for example, the modified Diamond's (TPS) medium at pH 7.05, together with about 10% by volume of heat-inactivated serum and about 1% by volume of an antibiotic-antimycoticmixture, is placed in each well of a multi-well plate. To this mixture, an aliquot of a suspension of G. lamblia cells containing about 10^6 organism is added. Subsequently, each well is inoculated with a known concentration of one of the pyridinone hydrazones, for example, 1-[(4-chlorophenyl)-4(1H)-pyridinone]-2-[(4-chlorophenyl)methylene]-hydrazone. The multiwell plate containing the individual culture samples is incubated under anaerobic conditions at about 37° C. for about 16-24 hours. The number of viable cells remaining in each well are then counted, such as with a hemocytometer. The percentage of survival is determined by comparison to controls incubated with DMSO (dimethylsulfoxide) and the effective concentration (in parts per million) for 50% inhibition of growth (ED50) is determined. It is established that the lower the ED50 the higher the activity of the 1-substituted-4-(1H)-pyridinone hydrazone tested.
(§2) In each well of a multiwell plate is placed 1.4 ml of Diamond's TPS medium (See Table II) at pH 7.05, 10% by volume of heat-inactivated fetal bovine serium, and 1% by volume of an antibiotic-antimycotic solution (see Table III). A suspension of Giardia lamblia is centrifuged at 2,500 xg for 6 minutes. The pelleted cells are resuspended in a small volume of Diamond's medium, the cells are counted and each well inoculated with approximately 10^6 organisms. A stock solution of 1-[(4-chlorophenyl)-4(1H)-pyridinone]-2-[(4-methylthiophenyl)-methylene]hydrazone in dimethylsulfoxide is made at a concentration of 150 μg/ml. The wells are then inoculated with various concentrations of the drug. The plates are incubated for 24 hours at 37° C. in an anaerobic Gas Pak jar. After 24 hours of incubation, each well is mixed and counted for viable organisms using a hemacytometer. The percentage of survival is determined by comparing the treated wells to controls treated with dimethylsulfoxide.
Employing the method of Example 1, centrifuged cells of T. vaginalis 30001 are incubated with 1-[(4-chlorophenyl)-4(1H)-pyridinone]-2-[(4-methylthiophenyl)methylene]hydrazone at 37° C. for 24 hours.

[2] = system: Giardia lamblia; experiment: In vitro anti-Giardia lamblia activity (multiwell culture, viable count by hemacytometer, 24 h); assay type: cell-based; details: Giardia duodenalis, 50% inhibition of growth, 37° C., about 16-24 hours, anaerobic, read-out: Anti-G. lamblia ED50
Method: as §1, §2

[3] = system: Giardia lamblia; details: humans; cited from earlier work
[4] = humans; cited from earlier work
[5] = system: Trichomonas vaginalis; details: humans; cited from earlier work
[6] = in animals; cited from earlier work

Clc1ccc(C=NN=c2ccn(-c3ccc(Cl)cc3)cc2)cc1 [(1), 1-[(4-chlorophenyl)-4(1H)-pyridinone]-2-[(4-chlorophenyl)methylene]hydrazone]
IC50 [1]: 2.63 µg/mL (≈ 7.68 µM) | activity against T. vaginalis (in words) [1]: active against T. vaginalis | IC50 [2]: 1.45 µg/mL (≈ 4.24 µM)

N#Cc1ccc(C=NN=c2ccn(-c3ccc(Cl)cc3)cc2)cc1 [(2), 1-[(4-chlorophenyl)-4(1H)-pyridinone]-2-[(4-cyanophenyl)methylene]hydrazone]
IC50 [1]: 3.3 µg/mL (≈ 9.92 µM) | activity against T. vaginalis (in words) [1]: active against T. vaginalis | IC50 [2]: 2.25 µg/mL (≈ 6.76 µM)

CSc1ccc(C=NN=c2ccn(-c3ccc(Cl)cc3)cc2)cc1 [(3), 1-[(4-chlorophenyl)-4(1H)-pyridinone]-2-[(4-methylthiophenyl)methylene]hydrazone]
IC50 [1]: 2.88 µg/mL (≈ 8.14 µM) | activity against T. vaginalis (in words) [1]: effective anti-T. vaginalis agent | IC50 [2]: 1.1 µg/mL (≈ 3.11 µM)

Clc1ccc(-n2ccc(=NN=Cc3ccc(Cl)c(Cl)c3)cc2)cc1 [(4), 1-[(4-chlorophenyl)-4(1H)-pyridinone]-2-[(3,4-dichlorophenyl)methylene]hydrazone]
IC50 [1]: 3 µg/mL (≈ 7.96 µM) | IC50 [2]: 1.5 µg/mL (≈ 3.98 µM)

FC(F)(F)c1ccc(C=NN=c2ccn(-c3ccc(Cl)cc3)cc2)cc1 [(5), 1-[(4-chlorophenyl)-4(1H)-pyridinone]-2-[(4-trifluoromethylphenyl)methylene]hydrazone]
IC50 [1]: 3.25 µg/mL (≈ 8.65 µM) | IC50 [2]: 1.42 µg/mL (≈ 3.78 µM)

Clc1ccc(-n2ccc(=NN=Cc3ccc(Br)cc3)cc2)cc1 [(6), 1-[(4-chlorophenyl)-4(1H)-pyridinone]-2-[(4-bromophenyl)methylene]hydrazone]
IC50 [1]: 3.63 µg/mL (≈ 9.39 µM) | IC50 [2]: 1.25 µg/mL (≈ 3.23 µM)

Clc1ccc(-n2ccc(=NN=Cc3ccc(Cl)cc3Cl)cc2)cc1 [(7)]
IC50 [1]: 1.75 µg/mL (≈ 4.65 µM) | IC50 [2]: 1.2 µg/mL (≈ 3.19 µM)

Fc1ccc(C=NN=c2ccn(-c3ccc(Cl)cc3)cc2)cc1 [(8), 1-[(4-chlorophenyl)-4(1H)-pyridinone]-2-[(4-fluorophenyl)methylene]hydrazone]
IC50 [1]: 4 µg/mL (≈ 12.3 µM) | IC50 [2]: 2.25 µg/mL (≈ 6.91 µM)

CCN(CC)CCCC(C)Nc1c2ccc(Cl)cc2nc2ccc(OC)cc12 (stereo not drawn) [Atabrine]
treatment of giardiasis infection [3]: successfully treated

O=C1OCCN1/N=C/c1ccc([N+](=O)[O-])o1 [furazolidone]
treatment of giardiasis infection [3]: successfully treated | adverse side effects [4]: adverse side effects

Cc1ncc([N+](=O)[O-])n1CCO [metronidazole]
therapy of trichomoniasis [5]: Successful therapy of trichomoniasis | carcinogenicity [6]: carcinogenic in animals | treatment of giardiasis infection [3]: successfully treated | IC50 [1]: < 1 µg/mL | IC50 [2]: 6.2 µg/mL (≈ 36.2 µM)
